Here are results for two compounds from patent US12077503B2, “Substituted cyclic amides and their use as herbicides” (FMC CORPORATION, priority 2015, dated 2024).

What all share (format): in vivo
One assay deals with rice (Oryra sativa). Kind of assay: Test B flooded paddy test. The settings on record: Oryza sativa, Flood, 250 g ai/ha, read-out: Rice plant response rating. Put shortly:
(§1)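 Compound goes directly into floodwater once pots are flooded 3 cm above soil, targeting plants at two leaves; the water depth is then held for the test duration. Plants sit 13–15 d in a greenhouse and are rated visually, 100 denoting complete control.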

In assay [1] the test system is sedge, umbrella (small-flower umbrella sedge, Cyperus difformis). The assay can be described thus: Test B flooded paddy test. The following applies: Cyperus difformis, Flood, 250 g ai/ha, read-out: Sedge, Umbrella plant response rating. The method, boiled down:
as §1

The subject of assay [2] is barnyardgrass (Echinochloa crus-galli). The assay can be described thus: Test B flooded paddy test. The following applies: Echinochloa crus-galli, Flood, 250 g ai/ha, read-out: Barnyardgrass plant response rating. Put shortly: as §1
In assay [3] the test system is ducksalad (Heteranthera limosa). Kind of assay: Test B flooded paddy test. The following applies: Heteranthera limosa, Flood, 250 g ai/ha, read-out: Ducksalad plant response rating. The method, boiled down:
as §1

In the next assay the test system is Kochia (Kochia scoparia). Kind of assay: Test A preemergence. The settings on record: Bassia scoparia, pre-emergence, 240 h, preemergence; for pest or weed control at 125 g/ha: 125 g ai/ha; for pest or weed control at 500 g/ha: 500 g ai/ha. Put shortly:
(§2)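 Ratings of 0 (no effect) to 100 (complete control) come from visual comparison with untreated controls roughly 10 d after treatment. Test chemicals, formulated in a non-phytotoxic solvent mixture with surfactant, were applied either as a preemergence directed soil spray on seeded soil or postemergence to one- to two-leaf plants 2 to 10 cm tall.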

Assay [4] concerns ragweed (common ragweed, Ambrosia elatior). The assay can be described thus: Test A preemergence. The settings on record: Ambrosia artemisiifolia, pre-emergence, 240 h, preemergence; for pest or weed control at 125 g/ha: 125 g ai/ha; for pest or weed control at 500 g/ha: 500 g ai/ha. Put shortly: as §2
In assay [5] the test system is ryegrass, Italian (Italian ryegrass, Lolium multiflorum). Kind of assay: Test A preemergence. The following applies: Lolium multiflorum, pre-emergence, 240 h, preemergence, 0 to 100 scale where 0 is no effect and 100 is complete control; for pest or weed control at 125 g/ha: 125 g ai/ha. The method, boiled down:
as §2

Assay [6] has as its system barnyardgrass (Echinochloa crus-galli). Kind of assay: Test A preemergence. The settings on record: Echinochloa crus-galli, pre-emergence, 240 h, preemergence; for pest or weed control at 125 g/ha: 125 g ai/ha; for pest or weed control at 500 g/ha: 500 g ai/ha. Put shortly: as §2
Assay [7] deals with pigweed (Amaranthus retroflexus). Kind of assay: Test A preemergence. The following applies: Amaranthus retroflexus, pre-emergence, 240 h, preemergence; for pest or weed control at 125 g/ha: 125 g ai/ha; for pest or weed control at 500 g/ha: 500 g ai/ha.
The test system of assay [8] is giant foxtail (Setaria faberii). Kind of assay: Test A preemergence. The following applies: Setaria faberi, pre-emergence, 240 h, preemergence; for pest or weed control at 125 g/ha: 125 g ai/ha; for pest or weed control at 500 g/ha: 500 g ai/ha. Put shortly: as §2
Assay [9] deals with Galium (catchweed bedstraw, Galium aparine). The assay can be described thus: Test A postemergence. The settings on record: Galium, post-emergence, 240 h, postemergence; for pest or weed control at 125 g/ha: 125 g ai/ha. The method, boiled down:
as §2

For assay [10], the system named is wheat (Triticum aestivum). Kind of assay: Test A postemergence. The following applies: Triticum aestivum, post-emergence, 240 h, 125 g ai/ha, postemergence. The method, boiled down: as §2
Assay [11] concerns pigweed (Amaranthus retroflexus). Kind of assay: Test A postemergence. The settings on record: Amaranthus retroflexus, post-emergence, 240 h, postemergence; for pest or weed control at 125 g/ha: 125 g ai/ha. The method, boiled down:
as §2

The subject of assay [12] is giant foxtail (Setaria faberii). The assay can be described thus: Test A postemergence. The settings on record: Setaria faberi, post-emergence, 240 h, postemergence; for pest or weed control at 125 g/ha: 125 g ai/ha. Put shortly:
as §2

Where [13] appears, read: scale of 0 to 100 where 0 is no effect and 100 is complete control.
Where [14] appears, read: 0 to 100 scale where 0 is no effect and 100 is complete control.

Read-outs that look alike come from different tables or passages of the source.

Consider `CN1CC(c2cccc(OC/C=C/Cl)c2)C(C(=O)Nc2cccc(F)c2F)C1=O` (stereo not drawn) [Compound 772], for which the pest or weed control at 250 g/ha amounted to 0% in the assay with rice (Oryra sativa) (setting [13]), 0% in assay [1] (setting [13]), 0% in assay [2] (setting [13]) and 75% in assay [3] (setting [13]). The pest or weed control at 125 g/ha was determined as 0% with Kochia (Kochia scoparia) (visual rating after approx. 10 d, 0 to 100 scale where 0 is no effect and 100 is complete control, read-out: Plant response rating, Kochia); 0% in assay [4] (visual rating after approx. 10 d, 0 to 100 scale where 0 is no effect and 100 is complete control, read-out: Plant response rating, Ragweed); 0% in assay [5] (visual rating after approx. 10 d, read-out: Plant response rating, Ryegrass, Italian); 0% in assay [6] (visual rating after approx. 10 d, 0 to 100 scale where 0 is no effect and 100 is complete control, read-out: Plant response rating, Barnyardgrass); 0% in assay [7] (visual rating after approx. 10 d, 0 to 100 scale where 0 is no effect and 100 is complete control, read-out: Plant response rating, Pigweed); 50% in assay [8] (visual rating after approx. 10 d, 0 to 100 scale where 0 is no effect and 100 is complete control, read-out: Plant response rating, Foxtail, Giant). Moreover, the pest or weed control at 125 g/ha in assay [9] (visual injury after approximately 10 d, 0 to 100 scale (0 no effect, 100 complete control), read-out: Plant response rating, Galium) was 0%; in assay [11] (visual injury after approximately 10 d, 0 to 100 scale (0 no effect, 100 complete control), read-out: Plant response rating, Pigweed) it was 0%; in [12] (visual injury after approximately 10 d, 0 to 100 scale (0 no effect, 100 complete control), read-out: Plant response rating, Foxtail, Giant) it was 30%. For the same compound, the pest or weed control at 500 g/ha amounted to 30% in the assay on Kochia (Kochia scoparia) (0 to 100 scale, 0 = no effect, 100 = complete control, read-out: Plant response rating, Kochia); 0% in [4] (0 to 100 scale, 0 = no effect, 100 = complete control, read-out: Plant response rating, Ragweed); 40% in assay [6] (0 to 100 scale, 0 = no effect, 100 = complete control, read-out: Plant response rating, Barnyardgrass); 0% in [7] (0 to 100 scale, 0 = no effect, 100 = complete control, read-out: Plant response rating, Pigweed); 90% in assay [8] (0 to 100 scale, 0 = no effect, 100 = complete control, read-out: Plant response rating, Foxtail, Giant). In addition, the plant injury at 125 g/ha in assay [10] (visual injury after approximately 10 d, 0 to 100 scale (0 no effect, 100 complete control), read-out: Plant response rating, Wheat) worked out at 0%.
As for `Cc1cccc([C@H]2CN(C)C(=O)[C@@H]2C(=O)Nc2ccc(F)c(F)c2F)c1` [Compound 1231], the pest or weed control at 250 g/ha with rice (Oryra sativa) (setting [14]) amounted to 0%; in assay [1] (setting [14]) it was 0%; in [2] (setting [14]) it was 85%; in [3] (setting [14]) it was 100%. For the same compound, the pest or weed control at 125 g/ha came to 70% with Kochia (Kochia scoparia) (visual injury rating, 0 to 100 scale where 0 is no effect and 100 is complete control, approximately 10 d, read-out: Kochia plant response rating); 30% in assay [4] (visual injury rating, 0 to 100 scale where 0 is no effect and 100 is complete control, approximately 10 d, read-out: Ragweed plant response rating); 40% in assay [5] (visual injury rating, approximately 10 d, read-out: Ryegrass, Italian plant response rating); 90% in [6] (visual injury rating, 0 to 100 scale where 0 is no effect and 100 is complete control, approximately 10 d, read-out: Barnyardgrass plant response rating); 40% in [7] (visual injury rating, 0 to 100 scale where 0 is no effect and 100 is complete control, approximately 10 d, read-out: Pigweed plant response rating); 90% in [8] (visual injury rating, 0 to 100 scale where 0 is no effect and 100 is complete control, approximately 10 d, read-out: Foxtail, Giant plant response rating). The pest or weed control at 125 g/ha turned out to be 50% in [9] (visual injury vs untreated controls after approx. 10 d, 0 = no effect, 100 = complete control, read-out: Galium plant response rating (0 to 100 scale)); 0% in assay [11] (visual injury vs untreated controls after approx. 10 d, 0 = no effect, 100 = complete control, read-out: Pigweed plant response rating (0 to 100 scale)); 80% in [12] (visual injury vs untreated controls after approx. 10 d, 0 = no effect, 100 = complete control, read-out: Foxtail, Giant plant response rating (0 to 100 scale)). In addition, the pest or weed control at 500 g/ha in the assay on Kochia (Kochia scoparia) (0 to 100 scale where 0 is no effect and 100 is complete control, read-out: Kochia plant response rating) was found to be 90%; in assay [4] (0 to 100 scale where 0 is no effect and 100 is complete control, read-out: Ragweed plant response rating), 60%; in assay [5] (500 g ai/ha, read-out: Ryegrass, Italian plant response rating), 90%; in [6] (0 to 100 scale where 0 is no effect and 100 is complete control, read-out: Barnyardgrass plant response rating), 90%; in assay [7] (0 to 100 scale where 0 is no effect and 100 is complete control, read-out: Pigweed plant response rating), 70%; in [8] (0 to 100 scale where 0 is no effect and 100 is complete control, read-out: Foxtail, Giant plant response rating), 90%. Further, the pest or weed control at 500 g/ha turned out to be 70% in assay [9] (500 g ai/ha, 0 to 100 scale, 0 is no effect, 100 is complete control, read-out: Galium plant response rating); 50% in assay [11] (500 g ai/ha, 0 to 100 scale, 0 is no effect, 100 is complete control, read-out: Pigweed plant response rating); 90% in [12] (500 g ai/ha, 0 to 100 scale, 0 is no effect, 100 is complete control, read-out: Foxtail, Giant plant response rating). Also, in assay [10] (visual injury vs untreated controls after approx. 10 d, 0 = no effect, 100 = complete control, read-out: Wheat plant response rating (0 to 100 scale)), the plant injury at 125 g/ha is 50%.
